From the NIST ThermoML archive (doi:10.1016/j.tca.2016.01.016)
“And” between values parts separate entries of the source, which are not always exact repeats. Equal values may be shown once.

Assay: molar heat capacity at constant pressure
Conditions: 101.33 kPa, Crystal, Small sample (50 mg) DSC

O=P([O-])([O-])[O-].[Dy+3] [dysprosium(III) phosphate]
Conditions	molar heat capacity at constant pressure
348.15 K	117.5 J/K/mol and 118.3 J/K/mol
353.15 K	119.1 J/K/mol and 119.4 J/K/mol
358.15 K	120.4 J/K/mol and 120.4 J/K/mol
363.15 K	121.5 J/K/mol and 121.3 J/K/mol
368.15 K	122.5 J/K/mol and 122.3 J/K/mol
373.15 K	123.3 J/K/mol and 123.2 J/K/mol
378.15 K	124.1 J/K/mol and 124.1 J/K/mol
383.15 K	124.9 J/K/mol and 124.9 J/K/mol
388.15 K	125.7 J/K/mol and 125.7 J/K/mol
393.15 K	126.4 J/K/mol and 126.5 J/K/mol
398.15 K	127.3 J/K/mol and 127.3 J/K/mol
403.15 K	128.1 J/K/mol and 128 J/K/mol
408.15 K	128.9 J/K/mol and 128.7 J/K/mol
413.15 K	129.6 J/K/mol and 129.4 J/K/mol
418.15 K	130.4 J/K/mol and 130.1 J/K/mol
423.15 K	131 J/K/mol and 130.8 J/K/mol
428.15 K	131.7 J/K/mol and 131.4 J/K/mol
433.15 K	132.3 J/K/mol and 132 J/K/mol
438.15 K	132.8 J/K/mol and 132.6 J/K/mol
443.15 K	133.4 J/K/mol and 133.2 J/K/mol
448.15 K	133.9 J/K/mol and 133.8 J/K/mol
453.15 K	134.5 J/K/mol and 134.3 J/K/mol
458.15 K	135 J/K/mol and 134.9 J/K/mol
463.15 K	135.5 J/K/mol and 135.4 J/K/mol
468.15 K	136.1 J/K/mol and 135.9 J/K/mol
473.15 K	136.6 J/K/mol and 136.4 J/K/mol
478.15 K	137 J/K/mol and 136.9 J/K/mol
483.15 K	137.4 J/K/mol and 137.4 J/K/mol
488.15 K	137.9 J/K/mol and 137.8 J/K/mol
493.15 K	138.3 J/K/mol and 138.3 J/K/mol
498.15 K	138.7 J/K/mol and 138.7 J/K/mol
503.15 K	139.1 J/K/mol and 139.1 J/K/mol
508.15 K	139.5 J/K/mol and 139.5 J/K/mol
513.15 K	139.9 J/K/mol and 140 J/K/mol
518.15 K	140.3 J/K/mol and 140.3 J/K/mol
523.15 K	140.7 J/K/mol and 140.7 J/K/mol
528.15 K	141 J/K/mol and 141.1 J/K/mol
533.15 K	141.3 J/K/mol and 141.5 J/K/mol
538.15 K	141.6 J/K/mol and 141.9 J/K/mol
543.15 K	142 J/K/mol and 142.2 J/K/mol
548.15 K	142.4 J/K/mol and 142.6 J/K/mol
553.15 K	142.7 J/K/mol and 142.9 J/K/mol
558.15 K	143 J/K/mol and 143.2 J/K/mol
563.15 K	143.4 J/K/mol and 143.6 J/K/mol
568.15 K	143.7 J/K/mol and 143.9 J/K/mol
573.15 K	143.9 J/K/mol and 144.2 J/K/mol
578.15 K	144.3 J/K/mol and 144.5 J/K/mol
583.15 K	144.6 J/K/mol and 144.8 J/K/mol
588.15 K	144.8 J/K/mol and 145.1 J/K/mol
593.15 K	145.1 J/K/mol and 145.4 J/K/mol
598.15 K	145.3 J/K/mol and 145.7 J/K/mol
603.15 K	145.6 J/K/mol and 145.9 J/K/mol
608.15 K	145.9 J/K/mol and 146.2 J/K/mol
613.15 K	146.1 J/K/mol and 146.5 J/K/mol
618.15 K	146.4 J/K/mol and 146.8 J/K/mol
623.15 K	146.7 J/K/mol and 147 J/K/mol
628.15 K	147 J/K/mol and 147.3 J/K/mol
633.15 K	147.3 J/K/mol and 147.5 J/K/mol
638.15 K	147.5 J/K/mol and 147.8 J/K/mol
643.15 K	147.8 J/K/mol and 148 J/K/mol
648.15 K	148 J/K/mol and 148.2 J/K/mol
653.15 K	148.2 J/K/mol and 148.5 J/K/mol
658.15 K	148.5 J/K/mol and 148.7 J/K/mol
663.15 K	148.8 J/K/mol and 148.9 J/K/mol
668.15 K	149.1 J/K/mol and 149.1 J/K/mol
673.15 K	149.3 J/K/mol and 149.3 J/K/mol
678.15 K	149.6 J/K/mol and 149.6 J/K/mol
683.15 K	149.9 J/K/mol and 149.8 J/K/mol
688.15 K	150.1 J/K/mol and 150 J/K/mol
693.15 K	150.4 J/K/mol and 150.2 J/K/mol
698.15 K	150.7 J/K/mol and 150.4 J/K/mol
703.15 K	150.9 J/K/mol and 150.6 J/K/mol
708.15 K	151.1 J/K/mol and 150.8 J/K/mol
713.15 K	151.4 J/K/mol and 151 J/K/mol
718.15 K	151.6 J/K/mol and 151.1 J/K/mol
723.15 K	151.8 J/K/mol and 151.3 J/K/mol
728.15 K	152 J/K/mol and 151.5 J/K/mol
733.15 K	152.1 J/K/mol and 151.7 J/K/mol
738.15 K	152.3 J/K/mol and 151.9 J/K/mol
743.15 K	152.5 J/K/mol and 152 J/K/mol
748.15 K	152.7 J/K/mol and 152.2 J/K/mol
753.15 K	152.9 J/K/mol and 152.4 J/K/mol
758.15 K	152.9 J/K/mol and 152.5 J/K/mol
763.15 K	153.1 J/K/mol and 152.7 J/K/mol
768.15 K	153.3 J/K/mol and 152.9 J/K/mol
773.15 K	153.4 J/K/mol and 153 J/K/mol
778.15 K	153.4 J/K/mol and 153.2 J/K/mol
783.15 K	153.6 J/K/mol and 153.3 J/K/mol
788.15 K	153.5 J/K/mol
793.15 K	153.7 J/K/mol and 153.6 J/K/mol
798.15 K	153.8 J/K/mol
803.15 K	154 J/K/mol and 153.9 J/K/mol
808.15 K	154.1 J/K/mol
813.15 K	154.2 J/K/mol
818.15 K	154.3 J/K/mol and 154.4 J/K/mol
823.15 K	154.4 J/K/mol and 154.5 J/K/mol
828.15 K	154.5 J/K/mol and 154.6 J/K/mol
833.15 K	154.5 J/K/mol and 154.8 J/K/mol
838.15 K	154.6 J/K/mol and 154.9 J/K/mol
843.15 K	154.8 J/K/mol and 155 J/K/mol
848.15 K	154.9 J/K/mol and 155.2 J/K/mol
853.15 K	154.9 J/K/mol and 155.3 J/K/mol
858.15 K	155 J/K/mol and 155.4 J/K/mol
863.15 K	155.1 J/K/mol and 155.6 J/K/mol
868.15 K	155.2 J/K/mol and 155.7 J/K/mol

O=P([O-])([O-])[O-].[Er+3] [erbium phosphate]
Conditions	molar heat capacity at constant pressure
348.15 K	113.7 J/K/mol and 113.8 J/K/mol
353.15 K	114.5 J/K/mol and 114.6 J/K/mol
358.15 K	115.2 J/K/mol and 115.3 J/K/mol
363.15 K	115.9 J/K/mol and 116.1 J/K/mol
368.15 K	116.4 J/K/mol and 116.8 J/K/mol
373.15 K	116.8 J/K/mol and 117.4 J/K/mol
378.15 K	117.4 J/K/mol and 118.1 J/K/mol
383.15 K	118.1 J/K/mol and 118.8 J/K/mol
388.15 K	119.1 J/K/mol and 119.4 J/K/mol
393.15 K	119.9 J/K/mol and 120 J/K/mol
398.15 K	120.7 J/K/mol and 120.6 J/K/mol
403.15 K	121.5 J/K/mol and 121.2 J/K/mol
408.15 K	122.2 J/K/mol and 121.8 J/K/mol
413.15 K	122.9 J/K/mol and 122.4 J/K/mol
418.15 K	123.5 J/K/mol and 123 J/K/mol
423.15 K	124 J/K/mol and 123.5 J/K/mol
428.15 K	124.5 J/K/mol and 124.1 J/K/mol
433.15 K	125 J/K/mol and 124.6 J/K/mol
438.15 K	125.4 J/K/mol and 125.1 J/K/mol
443.15 K	125.9 J/K/mol and 125.6 J/K/mol
448.15 K	126.4 J/K/mol and 126.1 J/K/mol
453.15 K	126.9 J/K/mol and 126.6 J/K/mol
458.15 K	127.4 J/K/mol and 127.1 J/K/mol
463.15 K	127.8 J/K/mol and 127.6 J/K/mol
468.15 K	128.2 J/K/mol and 128 J/K/mol
473.15 K	128.7 J/K/mol and 128.5 J/K/mol
478.15 K	129.1 J/K/mol and 129 J/K/mol
483.15 K	129.5 J/K/mol and 129.4 J/K/mol
488.15 K	129.9 J/K/mol and 129.8 J/K/mol
493.15 K	130.3 J/K/mol and 130.3 J/K/mol
498.15 K	130.7 J/K/mol and 130.7 J/K/mol
503.15 K	131.1 J/K/mol and 131.1 J/K/mol
508.15 K	131.5 J/K/mol and 131.5 J/K/mol
513.15 K	132 J/K/mol and 131.9 J/K/mol
518.15 K	132.4 J/K/mol and 132.3 J/K/mol
523.15 K	132.8 J/K/mol and 132.7 J/K/mol
528.15 K	133.2 J/K/mol and 133.1 J/K/mol
533.15 K	133.6 J/K/mol and 133.4 J/K/mol
538.15 K	134 J/K/mol and 133.8 J/K/mol
543.15 K	134.5 J/K/mol and 134.2 J/K/mol
548.15 K	134.8 J/K/mol and 134.5 J/K/mol
553.15 K	135.1 J/K/mol and 134.9 J/K/mol
558.15 K	135.4 J/K/mol and 135.2 J/K/mol
563.15 K	135.8 J/K/mol and 135.6 J/K/mol
568.15 K	136.1 J/K/mol and 135.9 J/K/mol
573.15 K	136.3 J/K/mol and 136.2 J/K/mol
578.15 K	136.6 J/K/mol and 136.6 J/K/mol
583.15 K	136.9 J/K/mol and 136.9 J/K/mol
588.15 K	137.2 J/K/mol and 137.2 J/K/mol
593.15 K	137.5 J/K/mol and 137.5 J/K/mol
598.15 K	137.8 J/K/mol and 137.8 J/K/mol
603.15 K	138 J/K/mol and 138.1 J/K/mol
608.15 K	138.3 J/K/mol and 138.4 J/K/mol
613.15 K	138.6 J/K/mol and 138.7 J/K/mol
618.15 K	138.8 J/K/mol and 139 J/K/mol
623.15 K	139 J/K/mol and 139.3 J/K/mol
628.15 K	139.3 J/K/mol and 139.6 J/K/mol
633.15 K	139.6 J/K/mol and 139.9 J/K/mol
638.15 K	139.8 J/K/mol and 140.2 J/K/mol
643.15 K	140.1 J/K/mol and 140.4 J/K/mol
648.15 K	140.3 J/K/mol and 140.7 J/K/mol
653.15 K	140.6 J/K/mol and 141 J/K/mol
658.15 K	140.9 J/K/mol and 141.3 J/K/mol
663.15 K	141.2 J/K/mol and 141.5 J/K/mol
668.15 K	141.4 J/K/mol and 141.8 J/K/mol
673.15 K	141.6 J/K/mol and 142 J/K/mol
678.15 K	141.8 J/K/mol and 142.3 J/K/mol
683.15 K	142.1 J/K/mol and 142.5 J/K/mol
688.15 K	142.3 J/K/mol and 142.8 J/K/mol
693.15 K	142.6 J/K/mol and 143 J/K/mol
698.15 K	142.9 J/K/mol and 143.3 J/K/mol
703.15 K	143.1 J/K/mol and 143.5 J/K/mol
708.15 K	143.5 J/K/mol and 143.8 J/K/mol
713.15 K	143.7 J/K/mol and 144 J/K/mol
718.15 K	143.9 J/K/mol and 144.2 J/K/mol
723.15 K	144.2 J/K/mol and 144.4 J/K/mol
728.15 K	144.4 J/K/mol and 144.7 J/K/mol
733.15 K	144.6 J/K/mol and 144.9 J/K/mol
738.15 K	144.8 J/K/mol and 145.1 J/K/mol
743.15 K	145 J/K/mol and 145.3 J/K/mol
748.15 K	145.2 J/K/mol and 145.6 J/K/mol
753.15 K	145.5 J/K/mol and 145.8 J/K/mol
758.15 K	145.8 J/K/mol and 146 J/K/mol
763.15 K	146.1 J/K/mol and 146.2 J/K/mol
768.15 K	146.3 J/K/mol and 146.4 J/K/mol
773.15 K	146.5 J/K/mol and 146.6 J/K/mol
778.15 K	146.8 J/K/mol and 146.8 J/K/mol
783.15 K	147 J/K/mol and 147 J/K/mol
788.15 K	147.2 J/K/mol and 147.2 J/K/mol
793.15 K	147.5 J/K/mol and 147.4 J/K/mol
798.15 K	147.8 J/K/mol and 147.6 J/K/mol
803.15 K	148 J/K/mol and 147.8 J/K/mol
808.15 K	148.2 J/K/mol and 148 J/K/mol
813.15 K	148.5 J/K/mol and 148.2 J/K/mol
818.15 K	148.7 J/K/mol and 148.4 J/K/mol
823.15 K	148.9 J/K/mol and 148.5 J/K/mol
828.15 K	149.1 J/K/mol and 148.7 J/K/mol
833.15 K	149.3 J/K/mol and 148.9 J/K/mol
838.15 K	149.5 J/K/mol and 149.1 J/K/mol
843.15 K	149.7 J/K/mol and 149.3 J/K/mol
848.15 K	149.9 J/K/mol and 149.5 J/K/mol
853.15 K	150.2 J/K/mol and 149.6 J/K/mol
858.15 K	150.3 J/K/mol and 149.8 J/K/mol
863.15 K	150.5 J/K/mol and 150 J/K/mol
868.15 K	150.8 J/K/mol and 150.1 J/K/mol
